Reference: ChEMBL document CHEMBL5649169 (ChemMedChem, 2018)

How the values were obtained:
[1] = molecular target: Actin-related protein 2 (Homo sapiens) (UniProt P61160)
[2] = molecular target: Activin receptor type-1B (Homo sapiens) (UniProt P36896)
[3] = molecular target: Neuroblast differentiation-associated protein AHNAK (Homo sapiens) (UniProt Q09666)
[4] = molecular target: Aminoacyl tRNA synthase complex-interacting multifunctional protein 1 (Homo sapiens) (UniProt Q12904)
[5] = molecular target: AP-2 complex subunit sigma (Homo sapiens) (UniProt P53680)
AP-2 complex subunit sigma (Homo sapiens), sequence (P53680 whole entry, looked up, one chain of several): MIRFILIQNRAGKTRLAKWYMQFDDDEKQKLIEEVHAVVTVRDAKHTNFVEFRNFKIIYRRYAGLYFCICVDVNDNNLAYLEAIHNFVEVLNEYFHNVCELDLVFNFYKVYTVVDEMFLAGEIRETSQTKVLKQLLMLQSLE

[6] = molecular target: Rho GDP-dissociation inhibitor 2 (Homo sapiens) (UniProt P52566)
Rho GDP-dissociation inhibitor 2 (Homo sapiens), sequence (P52566 whole entry): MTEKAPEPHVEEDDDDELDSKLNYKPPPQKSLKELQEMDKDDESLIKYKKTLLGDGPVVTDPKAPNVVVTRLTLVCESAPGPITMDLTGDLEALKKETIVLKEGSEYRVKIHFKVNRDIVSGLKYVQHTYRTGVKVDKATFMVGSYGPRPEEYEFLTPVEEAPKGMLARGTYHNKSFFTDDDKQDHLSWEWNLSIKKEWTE

[7] = molecular target: Actin-related protein 2/3 complex subunit 1B (Homo sapiens) (UniProt O15143)
[8] = molecular target: Pre-mRNA-splicing factor SPF27 (Homo sapiens) (UniProt O75934)
Pre-mRNA-splicing factor SPF27 (Homo sapiens), sequence (O75934 whole entry): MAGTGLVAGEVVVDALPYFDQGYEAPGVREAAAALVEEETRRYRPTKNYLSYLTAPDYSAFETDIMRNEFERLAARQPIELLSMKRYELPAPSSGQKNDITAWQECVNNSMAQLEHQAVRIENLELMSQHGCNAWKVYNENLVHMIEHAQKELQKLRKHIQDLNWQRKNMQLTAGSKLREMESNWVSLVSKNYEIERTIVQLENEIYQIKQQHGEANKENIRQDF

[9] = molecular target: eIF5-mimic protein 2 (Homo sapiens) (UniProt Q7L1Q6)
Calumenin (Homo sapiens) = Calumenin (Homo sapiens) (UniProt O43852)
Calumenin (Homo sapiens), sequence (O43852 whole entry): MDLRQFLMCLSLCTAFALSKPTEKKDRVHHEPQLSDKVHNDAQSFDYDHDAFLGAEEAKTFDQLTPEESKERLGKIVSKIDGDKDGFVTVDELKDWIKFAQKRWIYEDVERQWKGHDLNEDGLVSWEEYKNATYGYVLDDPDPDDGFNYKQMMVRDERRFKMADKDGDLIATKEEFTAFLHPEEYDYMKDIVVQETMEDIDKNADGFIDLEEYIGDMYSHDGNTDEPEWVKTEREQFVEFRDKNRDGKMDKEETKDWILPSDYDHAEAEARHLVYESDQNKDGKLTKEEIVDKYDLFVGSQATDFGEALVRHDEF

[10] = molecular target: Eukaryotic translation initiation factor 3 subunit H (Homo sapiens) (UniProt O15372)
[11] = molecular target: Casein kinase I isoform delta (Homo sapiens) (UniProt P48730)
[12] = molecular target: Aspartate--tRNA ligase, cytoplasmic (Homo sapiens) (UniProt P14868)
[13] = molecular target: Elongation factor 2 (Homo sapiens) (UniProt P13639)
[14] = molecular target: Ketosamine-3-kinase (Homo sapiens) (UniProt Q9HA64)
Ketosamine-3-kinase (Homo sapiens), sequence (Q9HA64 whole entry): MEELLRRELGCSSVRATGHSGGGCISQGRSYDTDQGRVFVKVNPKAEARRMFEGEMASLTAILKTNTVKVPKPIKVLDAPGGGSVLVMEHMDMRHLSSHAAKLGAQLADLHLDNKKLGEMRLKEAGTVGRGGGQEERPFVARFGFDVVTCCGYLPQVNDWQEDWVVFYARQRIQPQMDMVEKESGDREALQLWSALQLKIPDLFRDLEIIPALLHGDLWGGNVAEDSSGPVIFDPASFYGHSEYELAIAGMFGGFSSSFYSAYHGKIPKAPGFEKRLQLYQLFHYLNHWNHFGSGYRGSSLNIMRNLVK

[15] = molecular target: Aspartate aminotransferase, cytoplasmic (Homo sapiens) (UniProt P17174)
Aspartate aminotransferase, cytoplasmic (Homo sapiens), sequence (P17174 whole entry): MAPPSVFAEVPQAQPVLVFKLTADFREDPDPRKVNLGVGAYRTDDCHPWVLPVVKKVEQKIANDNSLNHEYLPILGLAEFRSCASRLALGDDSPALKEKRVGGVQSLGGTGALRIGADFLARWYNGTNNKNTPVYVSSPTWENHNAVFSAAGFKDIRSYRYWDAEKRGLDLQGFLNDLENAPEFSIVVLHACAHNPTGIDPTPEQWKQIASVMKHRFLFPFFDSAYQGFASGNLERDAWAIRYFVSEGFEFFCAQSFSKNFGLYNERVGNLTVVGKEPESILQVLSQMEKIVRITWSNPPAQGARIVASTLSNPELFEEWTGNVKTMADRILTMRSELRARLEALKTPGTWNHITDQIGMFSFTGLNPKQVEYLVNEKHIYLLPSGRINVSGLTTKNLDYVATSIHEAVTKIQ

[16] = molecular target: Heterogeneous nuclear ribonucleoprotein A/B (Homo sapiens) (UniProt Q99729)
Heterogeneous nuclear ribonucleoprotein A/B (Homo sapiens), sequence (Q99729 whole entry): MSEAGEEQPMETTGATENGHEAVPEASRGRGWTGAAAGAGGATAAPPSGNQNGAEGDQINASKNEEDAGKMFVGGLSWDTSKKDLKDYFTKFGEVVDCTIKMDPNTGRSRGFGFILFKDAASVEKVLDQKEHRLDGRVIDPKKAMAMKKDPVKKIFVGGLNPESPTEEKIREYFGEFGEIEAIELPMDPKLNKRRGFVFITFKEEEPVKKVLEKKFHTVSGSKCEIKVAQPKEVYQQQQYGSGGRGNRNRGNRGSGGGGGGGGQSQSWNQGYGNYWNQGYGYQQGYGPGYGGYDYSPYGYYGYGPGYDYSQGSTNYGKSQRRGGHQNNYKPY

[17] = molecular target: Insulin-like growth factor 1 receptor (Homo sapiens) (UniProt P08069)
[18] = molecular target: Endoplasmic reticulum junction formation protein lunapark (Homo sapiens) (UniProt Q9C0E8)
Endoplasmic reticulum junction formation protein lunapark (Homo sapiens), sequence (Q9C0E8 whole entry): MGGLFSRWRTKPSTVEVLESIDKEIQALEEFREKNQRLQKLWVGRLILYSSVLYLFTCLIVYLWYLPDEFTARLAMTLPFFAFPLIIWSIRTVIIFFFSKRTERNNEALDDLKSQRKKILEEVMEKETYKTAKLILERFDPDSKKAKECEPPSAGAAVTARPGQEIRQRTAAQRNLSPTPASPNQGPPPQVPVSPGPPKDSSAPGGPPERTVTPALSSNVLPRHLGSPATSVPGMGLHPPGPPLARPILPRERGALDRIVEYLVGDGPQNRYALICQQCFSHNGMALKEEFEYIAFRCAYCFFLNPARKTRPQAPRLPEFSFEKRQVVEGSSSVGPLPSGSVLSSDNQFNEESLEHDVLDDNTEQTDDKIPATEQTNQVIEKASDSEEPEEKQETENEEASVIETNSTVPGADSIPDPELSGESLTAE

[19] = molecular target: Putative RNA-binding protein Luc7-like 2 (Homo sapiens) (UniProt Q9Y383)
Putative RNA-binding protein Luc7-like 2 (Homo sapiens), sequence (Q9Y383 whole entry, canonical isoform): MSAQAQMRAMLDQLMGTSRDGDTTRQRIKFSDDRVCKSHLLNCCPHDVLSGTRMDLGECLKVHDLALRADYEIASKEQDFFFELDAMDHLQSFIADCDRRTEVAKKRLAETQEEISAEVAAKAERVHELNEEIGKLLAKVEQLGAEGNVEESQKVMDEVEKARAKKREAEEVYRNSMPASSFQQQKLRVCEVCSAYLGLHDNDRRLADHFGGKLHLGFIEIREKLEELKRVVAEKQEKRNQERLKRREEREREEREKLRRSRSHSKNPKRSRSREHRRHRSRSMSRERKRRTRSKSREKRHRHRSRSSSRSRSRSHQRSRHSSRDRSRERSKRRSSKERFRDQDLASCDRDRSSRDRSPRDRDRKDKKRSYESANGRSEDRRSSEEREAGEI

[20] = molecular target: Microtubule-actin cross-linking factor 1, isoforms 1/2/3/4/5 (Homo sapiens) (UniProt Q9UPN3)
[21] = molecular target: Protein MAL2 (Homo sapiens) (UniProt Q969L2)
Protein MAL2 (Homo sapiens), sequence (Q969L2 whole entry): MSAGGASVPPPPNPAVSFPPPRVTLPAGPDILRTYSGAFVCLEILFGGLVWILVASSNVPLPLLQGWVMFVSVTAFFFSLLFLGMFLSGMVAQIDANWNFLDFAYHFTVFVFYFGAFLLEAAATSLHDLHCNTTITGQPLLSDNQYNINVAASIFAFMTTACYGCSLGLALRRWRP

[22] = molecular target: Mitogen-activated protein kinase 15 (Homo sapiens) (UniProt Q8TD08)
[23] = molecular target: NADH dehydrogenase [ubiquinone] 1 beta subcomplex subunit 10 (Homo sapiens) (UniProt O96000)
[24] = molecular target: Serine/threonine-protein kinase PAK 2 (Homo sapiens) (UniProt Q13177)
[25] = molecular target: Programmed cell death 6-interacting protein (Homo sapiens) (UniProt Q8WUM4)
[26] = molecular target: Serine/threonine-protein phosphatase 6 regulatory subunit 1 (Homo sapiens) (UniProt Q9UPN7)
[27] = molecular target: 26S proteasome regulatory subunit 6A (Homo sapiens) (UniProt P17980)
[28] = molecular target: Glycogen phosphorylase, liver form (Homo sapiens) (UniProt P06737)
Glycogen phosphorylase, liver form (Homo sapiens), sequence (P06737 whole entry): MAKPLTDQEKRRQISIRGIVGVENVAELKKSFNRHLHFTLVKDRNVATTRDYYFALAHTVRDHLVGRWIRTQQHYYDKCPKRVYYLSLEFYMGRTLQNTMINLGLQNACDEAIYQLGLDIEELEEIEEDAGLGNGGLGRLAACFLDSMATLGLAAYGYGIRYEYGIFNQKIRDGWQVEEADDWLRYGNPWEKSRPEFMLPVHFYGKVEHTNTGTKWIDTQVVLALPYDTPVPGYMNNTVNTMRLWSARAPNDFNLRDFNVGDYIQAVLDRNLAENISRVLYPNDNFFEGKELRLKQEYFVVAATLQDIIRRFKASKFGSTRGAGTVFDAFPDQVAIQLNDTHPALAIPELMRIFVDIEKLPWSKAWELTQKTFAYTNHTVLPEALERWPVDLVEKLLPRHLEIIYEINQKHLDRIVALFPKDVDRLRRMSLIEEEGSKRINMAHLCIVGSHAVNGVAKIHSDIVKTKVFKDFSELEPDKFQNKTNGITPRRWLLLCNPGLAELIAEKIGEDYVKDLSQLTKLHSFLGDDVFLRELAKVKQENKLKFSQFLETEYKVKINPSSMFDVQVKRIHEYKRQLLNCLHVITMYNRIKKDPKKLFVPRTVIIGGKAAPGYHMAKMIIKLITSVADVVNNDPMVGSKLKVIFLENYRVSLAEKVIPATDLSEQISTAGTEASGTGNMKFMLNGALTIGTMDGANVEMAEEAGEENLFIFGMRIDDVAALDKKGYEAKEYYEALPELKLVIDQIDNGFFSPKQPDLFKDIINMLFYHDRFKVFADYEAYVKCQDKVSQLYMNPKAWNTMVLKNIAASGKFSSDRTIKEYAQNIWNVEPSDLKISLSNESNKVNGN

[29] = molecular target: Small ribosomal subunit protein uS5 (Homo sapiens) (UniProt P15880)
[30] = molecular target: Small ribosomal subunit protein uS12 (Homo sapiens) (UniProt P62266)
Septin-7 (Homo sapiens) = Septin-7 (Homo sapiens) (UniProt Q16181)
[31] = molecular target: High affinity cationic amino acid transporter 1 (Homo sapiens) (UniProt P30825)
[32] = molecular target: Serine/arginine-rich splicing factor 7 (Homo sapiens) (UniProt Q16629)
Serine/arginine-rich splicing factor 7 (Homo sapiens), sequence (Q16629 whole entry): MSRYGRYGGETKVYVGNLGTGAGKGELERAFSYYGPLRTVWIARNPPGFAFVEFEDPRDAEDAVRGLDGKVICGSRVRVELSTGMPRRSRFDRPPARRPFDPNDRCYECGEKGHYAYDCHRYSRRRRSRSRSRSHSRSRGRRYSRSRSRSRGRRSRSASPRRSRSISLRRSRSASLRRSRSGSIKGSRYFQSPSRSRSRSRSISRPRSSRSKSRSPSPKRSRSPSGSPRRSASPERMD

[33] = molecular target: Translocon-associated protein subunit alpha (Homo sapiens) (UniProt P43307)
Translocon-associated protein subunit alpha (Homo sapiens), sequence (P43307 whole entry): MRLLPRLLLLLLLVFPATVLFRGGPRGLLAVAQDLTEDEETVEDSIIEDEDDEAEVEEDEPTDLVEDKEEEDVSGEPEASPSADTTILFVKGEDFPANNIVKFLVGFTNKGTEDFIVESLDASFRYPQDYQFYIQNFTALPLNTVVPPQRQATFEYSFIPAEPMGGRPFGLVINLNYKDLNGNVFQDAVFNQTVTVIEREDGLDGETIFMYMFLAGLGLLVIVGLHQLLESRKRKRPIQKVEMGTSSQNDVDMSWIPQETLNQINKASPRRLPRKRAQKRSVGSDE

[34] = molecular target: FACT complex subunit SSRP1 (Homo sapiens) (UniProt Q08945)
[35] = molecular target: Succinate--CoA ligase [ADP-forming] subunit beta, mitochondrial (Homo sapiens) (UniProt Q9P2R7)
[36] = molecular target: SUN domain-containing protein 2 (Homo sapiens) (UniProt Q9UH99)
Elongin-C (Homo sapiens) = Elongin-C (Homo sapiens) (UniProt Q15369)
Elongin-C (Homo sapiens), sequence (Q15369 whole entry, looked up): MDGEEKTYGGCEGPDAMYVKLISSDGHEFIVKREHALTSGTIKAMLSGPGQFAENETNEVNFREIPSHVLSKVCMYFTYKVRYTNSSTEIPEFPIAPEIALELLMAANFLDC

[37] = molecular target: Tubulin alpha-1C chain (Homo sapiens) (UniProt Q9BQE3)
[38] = molecular target: Thioredoxin (Homo sapiens) (UniProt P10599)
Thioredoxin (Homo sapiens), sequence (P10599 whole entry): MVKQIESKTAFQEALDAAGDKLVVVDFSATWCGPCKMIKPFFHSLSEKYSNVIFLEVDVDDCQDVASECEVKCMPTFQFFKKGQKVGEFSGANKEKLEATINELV

[39] = molecular target: U2 snRNP-associated SURP motif-containing protein (Homo sapiens) (UniProt O15042)
[40] = molecular target: Protein unc-119 homolog A (Homo sapiens) (UniProt Q13432)
[41] = molecular target: Valine--tRNA ligase (Homo sapiens) (UniProt P26640)
[42] = molecular target: Synaptic vesicle membrane protein VAT-1 homolog (Homo sapiens) (UniProt Q99536)
Further: assay method not described here.

Aminoacyl tRNA synthase complex-interacting multifunctional protein 1 (Homo sapiens), sequence (Q12904 whole entry, one chain of several): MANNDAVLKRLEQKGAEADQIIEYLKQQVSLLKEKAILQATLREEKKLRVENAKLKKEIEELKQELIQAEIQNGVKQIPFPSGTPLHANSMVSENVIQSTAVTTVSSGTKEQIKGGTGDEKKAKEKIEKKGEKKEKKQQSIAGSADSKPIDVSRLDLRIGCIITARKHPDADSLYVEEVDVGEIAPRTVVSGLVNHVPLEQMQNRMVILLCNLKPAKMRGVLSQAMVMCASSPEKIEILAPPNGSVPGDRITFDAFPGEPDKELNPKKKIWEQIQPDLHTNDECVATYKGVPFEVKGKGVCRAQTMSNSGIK

Cc1ccc(C(=O)Nc2cccc(C(F)(F)F)c2)cc1Nc1nc(-c2cccnc2)nc2c1cnn2C
ED50 [1]: 174 nM
ED50 [2]: 177 nM
ED50 [3]: 4790 nM
ED50 [4]: 16500 nM
ED50 [5]: 678 nM
ED50 [6]: 46500 nM
ED50 [7]: 115000 nM
ED50 [8]: 1.89 nM
ED50 [9]: 571 nM
ED50 (Calumenin (Homo sapiens)): 1720 nM
ED50 [10]: 1400 nM
ED50 [11]: 10400 nM
ED50 [12]: 56.4 nM
ED50 [13]: 4030 nM
ED50 [14]: 277000 nM
ED50 [15]: 6820 nM
ED50 [16]: 21.5 nM
ED50 [17]: 17.9 nM
ED50 [18]: 15500 nM
ED50 [19]: 1770 nM
ED50 [20]: 5130 nM
ED50 [21]: 177 nM
ED50 [22]: 26 nM
ED50 [23]: 1170 nM
ED50 [24]: 19600 nM
ED50 [25]: 4910 nM
ED50 [26]: 10400 nM
ED50 [27]: 7620 nM
ED50 [28]: 2.39 nM
ED50 (Homo sapiens): 3520 nM
ED50 [29]: 80.4 nM
ED50 [30]: 8.73 nM
ED50 (Septin-7 (Homo sapiens)): 3340 nM
ED50 [31]: 4060 nM
ED50 [32]: 7.58 nM
ED50 [33]: 12200 nM
ED50 [34]: 2.23 nM
ED50 [35]: 5030 nM
ED50 [36]: 13500 nM
ED50 (Elongin-C (Homo sapiens)): 122000 nM
ED50 [37]: 5.64 nM
ED50 [38]: 13100 nM
ED50 [39]: 19.4 nM
ED50 [40]: 460 nM
ED50 [41]: 2390 nM
ED50 [42]: 7960 nM

Cc1ccc(C(=O)Nc2cccc(C(F)(F)F)c2)cc1Nc1nc(-c2cccnc2)nc2nn(C)cc12
ED50 [1]: 17000 nM
ED50 [2]: 59.1 nM
ED50 [3]: 110 nM
ED50 [4]: 57.4 nM
ED50 [5]: 17.9 nM
ED50 [6]: 26600 nM
ED50 [7]: 54.5 nM
ED50 [8]: 954 nM
ED50 [9]: 2540 nM
ED50 (Calumenin (Homo sapiens)): 3410 nM
ED50 [10]: 179 nM
ED50 [11]: 63.8 nM
ED50 [12]: 6720 nM
ED50 [13]: 12500 nM
ED50 [14]: 18.3 nM
ED50 [15]: 842 nM
ED50 [16]: 1360 nM
ED50 [17]: 8200 nM
ED50 [18]: 287 nM
ED50 [19]: 4270 nM
ED50 [20]: 23.4 nM
ED50 [21]: 1680 nM
ED50 [22]: 37.3 nM
ED50 [23]: 99.9 nM
ED50 [24]: 42500 nM
ED50 [25]: 4240 nM
ED50 [26]: 1.42 nM
ED50 [27]: 4.97 nM
ED50 [28]: 5790 nM
ED50 (Homo sapiens): 43200 nM
ED50 [29]: 1830 nM
ED50 [30]: 0.624 nM
ED50 (Septin-7 (Homo sapiens)): 3210 nM
ED50 [31]: 1680 nM
ED50 [32]: 258 nM
ED50 [33]: 16000 nM
ED50 [34]: 3600 nM
ED50 [35]: 2390 nM
ED50 [36]: 111 nM
ED50 (Elongin-C (Homo sapiens)): 682 nM
ED50 [37]: 9370 nM
ED50 [38]: 11400 nM
ED50 [39]: 1910 nM
ED50 [40]: 47800 nM
ED50 [41]: 19.5 nM
ED50 [42]: 145000 nM
